Series [1] relates to W256. The series is described as follows: Antitumor activity against rat Walker 256 cells allografted in Wistar rat assessed as tumor inhibition at 0.45 mmol/kg, po qd for 7 days measured on day 10 relative to control. The format is functional. As to conditions: read-out: TGI.
The nature of series [2]: Antitumor activity against rat AH-130 cells allografted in Donryu rat assessed as tumor inhibition at 0.45 mmol/kg, po qd for 7 days measured on day 10 relative to control. Conditions: read-out: TGI. The format is functional.
Series [3] has as its system Rattus norvegicus. The series is described as follows: Toxicity in Donryu rat allografted with rat AH-130 cells assessed as body weight change at 0.45 mmol/kg, po administered for 7 days measured on day 10 relative to control. As to conditions: in vivo, 168 h. The series is classed as organism-based.
Series [4] is described as follows: Antitumor activity against mouse Ehrlich carcinoma cells allografted in ddY mouse assessed as tumor inhibition at 0.15 mmol/kg, po qd for 7 days measured on day 10 relative to control. The format is functional. Conditions: read-out: TGI.
The subject of series [5] is YOSHIDA. The series is described as follows: Antitumor activity against rat Yoshida cells allografted in Donryu rat assessed as tumor inhibition at 0.45 mmol/kg, po qd for 7 days measured on day 10 relative to control. The series is classed as functional. Conditions: read-out: TGI.
In series [6] the test system is Sarcoma-180. The series is described as follows: Antitumor activity against mouse Sarcoma 180 cells allografted in ICR mouse assessed as tumor inhibition at 0.15 mmol/kg, po qd for 7 days measured on day 10 relative to control. The format is functional. As to conditions: Sarcoma-180, po, read-out: TGI.
The nature of series [7]: Antitumor activity against mouse Ehrlich carcinoma cells allografted in ddY mouse assessed as tumor inhibition at 0.45 mmol/kg, po qd for 7 days measured on day 10 relative to control. The series is classed as functional. As to conditions: read-out: TGI.
The subject of series [8] is YOSHIDA. The series is described as follows: Antitumor activity against rat Yoshida cells allografted in Donryu rat assessed as tumor inhibition at 0.15 mmol/kg, po qd for 7 days measured on day 10 relative to control. The series is classed as functional. Conditions: read-out: TGI.
The nature of series [9]: Antitumor activity against rat AH-130 cells allografted in Donryu rat assessed as tumor inhibition at 0.15 mmol/kg, po qd for 7 days measured on day 10 relative to control. The series is classed as functional. Conditions: read-out: TGI.
The test system of series [10] is Sarcoma-180. The series is described as follows: Antitumor activity against mouse Sarcoma 180 cells allografted in ICR mouse assessed as tumor inhibition at 0.45 mmol/kg, po qd for 7 days measured on day 10 relative to control. As to conditions: Sarcoma-180, po, read-out: TGI. The series is classed as functional.
Series [11] has as its system W256. The series is described as follows: Antitumor activity against rat Walker 256 cells allografted in Wistar rat assessed as tumor inhibition at 0.15 mmol/kg, po qd for 7 days measured on day 10 relative to control. The format is functional. As to conditions: read-out: TGI.
Series [12] is described as follows: Antitumor activity against rat AH-130 cells allografted in Donryu rat assessed as tumor inhibition at 0.08 mmol/kg, po qd for 7 days measured on day 10 relative to control. The series is classed as functional. As to conditions: read-out: TGI.
Series [13] deals with Sarcoma-180. The series is described as follows: Antitumor activity against mouse Sarcoma 180 cells allografted in ICR mouse assessed as tumor inhibition at 0.08 mmol/kg, po qd for 7 days measured on day 10 relative to control. The format is functional. Conditions: Sarcoma-180, po, read-out: TGI.
A short description of series [14]: Antitumor activity against mouse Ehrlich carcinoma cells allografted in ddY mouse assessed as tumor inhibition at 0.08 mmol/kg, po qd for 7 days measured on day 10 relative to control. The format is functional. As to conditions: read-out: TGI.
Series [15] relates to Rattus norvegicus. The series is described as follows: Toxicity in Donryu rat allografted with rat AH-130 cells assessed as body weight change at 0.08 mmol/kg, po administered for 7 days measured on day 10 relative to control. The format is organism-based. Conditions: in vivo, 168 h.
In series [16] the test system is W256. The series is described as follows: Antitumor activity against rat Walker 256 cells allografted in Wistar rat assessed as tumor inhibition at 0.08 mmol/kg, po qd for 7 days measured on day 10 relative to control. The format is functional. As to conditions: read-out: TGI.
Series [17] deals with YOSHIDA. The series is described as follows: Antitumor activity against rat Yoshida cells allografted in Donryu rat assessed as tumor inhibition at 0.08 mmol/kg, po qd for 7 days measured on day 10 relative to control. The series is classed as functional. As to conditions: read-out: TGI.
Series [18] in a line: Toxicity in po dosed ddY mouse after 3 weeks by up and down method. The format is organism-based. As to conditions: in vivo.
The nature of series [19]: Toxicity in po dosed ddY mouse after 3 days by up and down method. The series is classed as organism-based. As to conditions: in vivo.
The subject of series [20] is Rattus norvegicus. The series is described as follows: Toxicity in Donryu rat allografted with rat AH-130 cells assessed as body weight change at 0.15 mmol/kg, po administered for 7 days measured on day 10 relative to control. The series is classed as organism-based. As to conditions: in vivo, 168 h.

As for `O=c1[nH]c(=O)n(C2CCCO2)cc1F` (stereo not drawn) [TEGAFUR], the inhibition in vivo at 450 µmol/kg is 31% with W256 [1]; 35% in series [2]; 52% in the series with YOSHIDA [5]; 54% in series [7]; 37% with Sarcoma-180 [10]. In the series with Rattus norvegicus [3], the Activity was determined as 40.9 g. Further, the inhibition in vivo at 150 µmol/kg in series [4] was determined as 38%; with Sarcoma-180 [6], 38%; with YOSHIDA [8], 32%; in [9], 22%; in the series with W256 [11], 27%.

As for `O=c1[nH]cc(F)c(=O)[nH]1` [FLUOROURACIL], the inhibition in vivo at 80 µmol/kg was 33% in series [12]; 48% in the series on Sarcoma-180 [13]; 42% in series [14]; 24% in the series with W256 [16]; 41% with YOSHIDA [17]. Further, the Activity in the series with Rattus norvegicus [15] amounted to 42.1 g.

`O=c1c(F)cn(C2CCCO2)c(=O)n1C1CCCO1` (stereo not drawn): the inhibition in vivo at 450 µmol/kg was 37% in the series on W256 [1]; 44% in series [2]; 58% with YOSHIDA [5]; 61% in series [7]; 56% with Sarcoma-180 [10]. In series [18], this compound came in with an LD50 at 504 h of 2660 mg/kg. Moreover, the inhibition in vivo at 150 µmol/kg turned out to be 50% in series [4]; 45% with Sarcoma-180 [6]; 43% in the series with YOSHIDA [8]; 32% in [9]; 27% with W256 [11]. In [19], this compound showed an LD50 at 72 h of 2900 mg/kg.

On to `O=c1[nH]cc(F)c(=O)n1C1CCCO1` (stereo not drawn), for which the Activity in the series on Rattus norvegicus [20] worked out at 47.3 g; in the series on Rattus norvegicus [3], 21.7 g. Also, the inhibition in vivo at 450 µmol/kg in series [2] came out at 80%. Moreover, the inhibition in vivo at 150 µmol/kg in [9] came out at 45%.

By LD50 is commonly meant the dose expected to kill half of the subjects tested. Read a high LD50 as lower toxicity.

(Values after ChEMBL document CHEMBL3272324, “Studies on antitumor agents, 2. Syntheses and antitumor activities of 1-(tetrahydro-2-furanyl)-5-fluorouracil and 1,3-bis(tetrahydro-2-furanyl)-5-fluorouracil” (J Med Chem, 1978).)
